In BindingDB's records for doi:10.1016/j.bmcl.2017.11.040 (Hawaii Biotech, 2018):

Target: T1, Calmodulin-sensitive adenylate cyclase (Bacillus anthracis, UniProt P40136)
T1 sequence (P40136 whole entry): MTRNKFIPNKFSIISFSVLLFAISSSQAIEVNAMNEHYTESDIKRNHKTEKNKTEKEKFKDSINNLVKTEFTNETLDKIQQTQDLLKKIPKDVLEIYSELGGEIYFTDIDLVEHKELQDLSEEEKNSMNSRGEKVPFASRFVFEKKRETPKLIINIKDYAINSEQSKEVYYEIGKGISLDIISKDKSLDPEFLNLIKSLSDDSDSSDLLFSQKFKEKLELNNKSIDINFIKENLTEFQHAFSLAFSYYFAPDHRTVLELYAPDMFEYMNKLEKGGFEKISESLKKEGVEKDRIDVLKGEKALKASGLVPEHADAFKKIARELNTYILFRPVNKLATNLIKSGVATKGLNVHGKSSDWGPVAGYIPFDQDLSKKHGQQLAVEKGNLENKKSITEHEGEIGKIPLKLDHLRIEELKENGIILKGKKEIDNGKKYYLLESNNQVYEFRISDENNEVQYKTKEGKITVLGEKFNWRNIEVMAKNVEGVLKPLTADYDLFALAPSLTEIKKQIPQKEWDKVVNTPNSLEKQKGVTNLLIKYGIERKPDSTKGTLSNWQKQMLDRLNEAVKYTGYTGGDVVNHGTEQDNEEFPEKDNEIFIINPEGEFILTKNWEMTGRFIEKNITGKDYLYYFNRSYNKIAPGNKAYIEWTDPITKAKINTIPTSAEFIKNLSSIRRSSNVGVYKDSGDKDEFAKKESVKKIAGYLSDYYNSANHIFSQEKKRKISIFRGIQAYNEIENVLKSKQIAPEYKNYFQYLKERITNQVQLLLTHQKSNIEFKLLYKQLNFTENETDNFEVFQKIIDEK
Test: Inactivation of Bacillus anthracis edema factor in presence of CaM incubated for 10 to 240 mins by EnzChek pyrophosphate assay

With Nc1cc(OC2CCN(C(=O)c3ccc(S(=O)(=O)F)cc3)CC2)ccn1 the Ki was 59.1 µM.
